Results on 13 molecules are retold here after patent publication US7709643B2, “Synthesis of sodium narcistatin and related compounds” (Arizona Board of Regents, a body corporate of the State of …, priority 2005, dated 2010).

In brackets after ≈: the same amount, converted by molar mass.

One series relates to BXPC-3. Put plainly: Human cancer cell line minipanel, Pancreas-a BXPC-3. The series is classed as cell-based. The procedure: (§1) The cyclic phosphate prodrugs, along with the parent compounds were evaluated against a minipanel of human cancer cell lines and murine P388 lymphocytic leukemia.
Series [1] can be described thus: Aqueous solubility at 25° C. The series is classed as physicochemical.
A further series has as its system MCF-7. The series is described as follows: Human cancer cell line minipanel, Breast MCF-7. It counts as cell-based. As for the experimental part:
as §1

The subject of the next series is DU-145. Put plainly: Human cancer cell line minipanel, Prostate DU-145. It counts as cell-based. The procedure:
as §1

A further series relates to KM20L2. The series is described as follows: Human cancer cell line minipanel, Colon KM20L2. The series is classed as cell-based. As for the experimental part:
as §1

The next series has as its system NCI-H460. The series is described as follows: Human cancer cell line minipanel, Lung-NSC NCI-H460. The series is classed as cell-based. As for the experimental part:
as §1

Another series deals with SF268. The series is described as follows: Human cancer cell line minipanel, CNS SF268. The series is classed as cell-based. The procedure:
as §1

Series [2] deals with NCI panel of cancer cell lines. To be noted: J. Nat. Prod. 56:1682-1687, 1993; cited from earlier work.
Series [3] has as its system minipanel of human cancer cell lines and murine P388 lymphocytic leukemia. Put plainly: Minipanel of human cancer cell lines and murine P388 lymphocytic leukemia (summary in words). It counts as cell-based. Conditions: summary of the cancer cell line evaluations of Table 2. As for the experimental part: as §1
The corresponding 3,5-cyclic phosphates were less inhibitory under the experimental conditions employed. However, cleavage of the phosphate groups is expected to be very effective in vivo and such anticancer evaluations are now underway as part of the further preclinical development of these new anticancer drug candidates. (Pettit, G. R., et al., J. Nat. Prod. 2003, 66, 92-96.), (Dowlati, A., et al., Cancer Research 2002, 62, 3408-3416.), (Dziba, J. M., et al., Thyroid 2002, 12, 1063-1070.), (Eikesdal, H. P., et al., Cancer Lett. 2002, 178, 209-217.), (Prise, V., et al., Int. J. Oncology 2002, 21, 717-726.), (Hill, S. A., et al., Int. J. Cancer 2002, 102, 70-74.)

For another series, the system named is RNA viruses. To be noted: J. Nat. Prod. 55:1569-1581; 1992; cited from earlier work.

With `O=C1N[C@@H]2C(=C[C@H](O)[C@@H](O)[C@H]2O)c2cc3c(cc21)OCO3` [2c, 7-deoxynarciclasine, reference compound], the “GI50 Pancreas-a BXPC-3” value in the series on BXPC-3 amounted to 0.070 µg/mL (≈ 0.24 µM). The “Aqueous Solubility 25° C.” value in series [1] is less than 1000 µg/mL. In the series on MCF-7, the “GI50 Breast MCF-7” value amounted to 0.046 µg/mL (≈ 0.158 µM). In the series on DU-145, the “GI50 Prostate DU-145” value amounted to 0.051 µg/mL (≈ 0.175 µM). In addition, the “GI50 Colon KM20L2” value in the series on KM20L2 is 0.084 µg/mL (≈ 0.288 µM). In the series on NCI-H460, the “GI50 Lung-NSC NCI-H460” value is 0.053 µg/mL (≈ 0.182 µM). In addition, the “GI50 CNS SF268” value in the series on SF268 is 0.120 µg/mL (≈ 0.412 µM).

For `O=C1N[C@H]2[C@@H]3OP(=O)([O-])O[C@@H]3[C@@H](O)C[C@@H]2c2cc3c(c(O)c21)OCO3.[Na+]` (relative stereo) [compound 12, Sodium trans-dihydro-narcistatin], the “GI50 Pancreas-a BXPC-3” value with BXPC-3 amounted to 5.6 µg/mL. In addition, the “GI50 Breast MCF-7” value in the series with MCF-7 was 4.6 µg/mL. Moreover, in the series on DU-145, the “GI50 Prostate DU-145” value stood at 5.2 µg/mL. Moreover, in the series on KM20L2, the “GI50 Colon KM20L2” value worked out at 9.6 µg/mL. Further, the “GI50 Lung-NSC NCI-H460” value with NCI-H460 turned out to be 7.8 µg/mL. Also, the “GI50 CNS SF268” value with SF268 came out at 8.8 µg/mL.

As to `O=C1N[C@H]2[C@@H]3OP(=O)([O-])O[C@@H]3[C@@H](O)C[C@@H]2c2cc3c(cc21)OCO3.[Li+]` (relative stereo) [11a, Lithium 7-deoxy-trans-dihydro-narcistatin], the “GI50 Pancreas-a BXPC-3” value in the series with BXPC-3 was more than 1 µg/mL. Moreover, the “GI50 Breast MCF-7” value with MCF-7 is more than 1 µg/mL. Further, the “GI50 Prostate DU-145” value in the series on DU-145 is more than 1 µg/mL. For the same molecule, the “GI50 Colon KM20L2” value in the series on KM20L2 is more than 1 µg/mL. For the same molecule, the “GI50 Lung-NSC NCI-H460” value in the series with NCI-H460 is more than 1 µg/mL. The “GI50 CNS SF268” value in the series on SF268 was more than 1 µg/mL.

On to `O=C1N[C@H]2[C@H](O)[C@H](O)[C@@H](O)C[C@@H]2c2cc3c(c(O)c21)OCO3` (relative stereo) [1a, trans-dihydronarciclasine], for which the “GI50 Pancreas-a BXPC-3” value with BXPC-3 was 0.012 µg/mL (≈ 0.0388 µM). Moreover, in [1], the “Aqueous Solubility 25° C.” value is less than 1000 µg/mL. In addition, in series [2], the GI50 was 0.0126 µM. In addition, the “GI50 Breast MCF-7” value with MCF-7 was 0.0053 µg/mL (≈ 0.0171 µM). In the series with DU-145, the “GI50 Prostate DU-145” value worked out at 0.0066 µg/mL (≈ 0.0213 µM). Also, the “GI50 Colon KM20L2” value in the series on KM20L2 was 0.015 µg/mL (≈ 0.0485 µM). For the same molecule, the “cancer cell growth inhibitory activity (in words)” value in series [3] is listed as “strong cancer cell growth inhibitory activity”. The “activity against a range of RNA viruses” value in the series on RNA viruses was “strong activity”. In the series with NCI-H460, the “GI50 Lung-NSC NCI-H460” value was found to be 0.0092 µg/mL (≈ 0.0297 µM). Further, in the series with SF268, the “GI50 CNS SF268” value is 0.020 µg/mL (≈ 0.0647 µM).

For `O=C1N[C@H]2[C@@H]3OP(=O)([O-])O[C@@H]3[C@@H](O)C[C@@H]2c2cc3c(cc21)OCO3.[Na+]` (relative stereo) [compound 11, Sodium 7-Deoxy-trans-dihydro-narcistatin], the “GI50 Pancreas-a BXPC-3” value in the series with BXPC-3 is more than 10 µg/mL. In addition, the “GI50 Breast MCF-7” value with MCF-7 is 7.2 µg/mL. Also, the “GI50 Prostate DU-145” value in the series on DU-145 was more than 10 µg/mL. For the same molecule, the “GI50 Colon KM20L2” value with KM20L2 is more than 10 µg/mL. The “GI50 Lung-NSC NCI-H460” value in the series on NCI-H460 is more than 10 µg/mL. In addition, the “GI50 CNS SF268” value in the series with SF268 is more than 10 µg/mL.

In the case of `O=C1N[C@H]2[C@@H]3OP(=O)([O-])O[C@@H]3[C@@H](O)C[C@@H]2c2cc3c(cc21)OCO3.[K+]` (relative stereo) [11b, Potassium 7-deoxy-trans-dihydro-narcistatin], in the series with BXPC-3, the “GI50 Pancreas-a BXPC-3” value is more than 1 µg/mL. Besides, in the series on MCF-7, the “GI50 Breast MCF-7” value was more than 1 µg/mL. For the same molecule, in the series on DU-145, the “GI50 Prostate DU-145” value was more than 1 µg/mL. In the series on KM20L2, the “GI50 Colon KM20L2” value is more than 1 µg/mL. In addition, the “GI50 Lung-NSC NCI-H460” value in the series on NCI-H460 was more than 1 µg/mL. Besides, the “GI50 CNS SF268” value in the series on SF268 is more than 1 µg/mL.

Consider `O=C1N[C@H]2[C@@H]3OP(=O)([O-])O[C@@H]3[C@@H](O)C[C@@H]2c2cc3c(c(O)c21)OCO3.[K+]` (relative stereo) [12b, Potassium trans-dihydro-narcistatin], for which, in the series with BXPC-3, the “GI50 Pancreas-a BXPC-3” value is more than 1 µg/mL. Also, in the series with MCF-7, the “GI50 Breast MCF-7” value was found to be 0.64 µg/mL. Also, in the series with DU-145, the “GI50 Prostate DU-145” value worked out at 0.54 µg/mL. For the same molecule, the “GI50 Colon KM20L2” value with KM20L2 is more than 1 µg/mL. Besides, the “GI50 Lung-NSC NCI-H460” value with NCI-H460 was more than 1 µg/mL. Also, the “GI50 CNS SF268” value in the series on SF268 was more than 1 µg/mL.

With `O=C1N[C@H]2[C@H](O)[C@H](O)[C@@H](O)C[C@@H]2c2cc3c(cc21)OCO3` (relative stereo) [1c, 7-deoxy-trans-dihydronarciclasine], the “GI50 Pancreas-a BXPC-3” value in the series on BXPC-3 worked out at 0.046 µg/mL (≈ 0.157 µM). Also, the “Aqueous Solubility 25° C.” value in series [1] is less than 1000 µg/mL. Besides, in the series on MCF-7, the “GI50 Breast MCF-7” value came to 0.034 µg/mL (≈ 0.116 µM). For the same molecule, the “GI50 Prostate DU-145” value in the series on DU-145 was determined as 0.040 µg/mL (≈ 0.136 µM). In addition, the “GI50 Colon KM20L2” value in the series on KM20L2 amounted to 0.051 µg/mL (≈ 0.174 µM). Also, the “cancer cell growth inhibitory activity (in words)” value in [3] is “strong cancer cell growth inhibitory activity”. Further, the “GI50 Lung-NSC NCI-H460” value with NCI-H460 is 0.043 µg/mL (≈ 0.147 µM). Moreover, the “GI50 CNS SF268” value with SF268 was 0.059 µg/mL (≈ 0.201 µM).

Take `O=C1N[C@H]2[C@@H]3OP(=O)([O-])O[C@@H]3[C@@H](O)C[C@@H]2c2cc3c(c(O)c21)OCO3.[Li+]` (relative stereo) [12a, Lithium trans-dihydro-narcistatin]: in the series on BXPC-3, the “GI50 Pancreas-a BXPC-3” value was more than 1 µg/mL. In addition, the “GI50 Breast MCF-7” value in the series on MCF-7 was more than 1 µg/mL. Further, in the series on DU-145, the “GI50 Prostate DU-145” value is more than 1 µg/mL. Besides, the “GI50 Colon KM20L2” value in the series on KM20L2 is more than 1 µg/mL. In addition, the “GI50 Lung-NSC NCI-H460” value in the series with NCI-H460 was more than 1 µg/mL. In addition, the “GI50 CNS SF268” value with SF268 is more than 1 µg/mL.

Turning to `O=C1NC2C(CC(O)C(O)C2O)c2cc3c(c(O)c21)OCO3` (stereo not drawn) [3a, cis-dihydronarciclasine, reference compound], the GI50 in series [2] is 3.8 µM. For the same molecule, the “activity against a range of RNA viruses” value in the series on RNA viruses is “completely inactive”.

In the case of `O=C1N[C@@H]2C(=C[C@H](O)[C@H]3OP(=O)([O-])O[C@H]32)c2cc3c(cc21)OCO3.[Na+]` [compound 10, Sodium 7-Deoxy-narcistatin], the “GI50 Pancreas-a BXPC-3” value in the series with BXPC-3 turned out to be 5.3 µg/mL. The “GI50 Breast MCF-7” value in the series with MCF-7 was 4.0 µg/mL. Further, in the series with DU-145, the “GI50 Prostate DU-145” value is 3.9 µg/mL. The “GI50 Colon KM20L2” value with KM20L2 worked out at 5.6 µg/mL. Further, the “GI50 Lung-NSC NCI-H460” value in the series with NCI-H460 stood at 4.7 µg/mL. Moreover, the “GI50 CNS SF268” value in the series on SF268 turned out to be 6.3 µg/mL.

Take `O=C1N[C@@H]2C(=C[C@H](O)[C@H]3OP(=O)([O-])O[C@H]32)c2cc3c(cc21)OCO3.[Li+]` [10a, Lithium 7-Deoxy-narcistatin]: the “GI50 Pancreas-a BXPC-3” value in the series on BXPC-3 is more than 1 µg/mL. The “GI50 Breast MCF-7” value in the series with MCF-7 was more than 1 µg/mL. Also, the “GI50 Prostate DU-145” value in the series with DU-145 was more than 1 µg/mL. In addition, the “GI50 Colon KM20L2” value in the series on KM20L2 is more than 1 µg/mL. The “GI50 Lung-NSC NCI-H460” value in the series on NCI-H460 was more than 1 µg/mL. In the series with SF268, the “GI50 CNS SF268” value is more than 1 µg/mL.

For the molecule `O=C1N[C@@H]2C(=C[C@H](O)[C@H]3OP(=O)([O-])O[C@H]32)c2cc3c(cc21)OCO3.[K+]` [10b, Potassium 7-Deoxy-narcistatin], the “GI50 Pancreas-a BXPC-3” value in the series with BXPC-3 was more than 1 µg/mL. The “GI50 Breast MCF-7” value with MCF-7 is more than 1 µg/mL. Besides, the “GI50 Prostate DU-145” value with DU-145 is more than 1 µg/mL. Moreover, the “GI50 Colon KM20L2” value with KM20L2 was more than 1 µg/mL. The “GI50 Lung-NSC NCI-H460” value in the series on NCI-H460 was more than 1 µg/mL. Further, the “GI50 CNS SF268” value in the series with SF268 is more than 1 µg/mL.
